Patent US8952024B2, “Herbicidal pyrimidone derivatives” (E I du Pont de Nemours and Company, priority 2009, dated 2015)

Assays:
Type in all cases: in vivo
[1] = system: barnyardgrass (Echinochloa crus-galli); assay: Test A pre-/postemergence plant response
How it was run: (§1)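 Injury scores (0, no effect; 100, complete control) come from visual comparison with untreated controls roughly ten days post-treatment. Test chemicals in a surfactant-containing non-phytotoxic solvent were applied as a directed soil spray preemergence and to one- to two-leaf seedlings postemergence.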

corn (Zea mays) = assay: Test A pre-/postemergence plant response
How it was run: as §1

[2] = system: giant foxtail (Setaria faberii); assay: Test A pre-/postemergence plant response
How it was run: as §1

[3] = system: large crabgrass (Digitaria sanguinalis); assay: Test A pre-/postemergence plant response
How it was run: as §1

[4] = system: morningglory (Ipomoea spp.); assay: Test A pre-/postemergence plant response
How it was run: as §1

[5] = system: pigweed (Amaranthus retroflexus); assay: Test A pre-/postemergence plant response
How it was run: as §1

[6] = system: velvetleaf (Abutilon theophrasti); assay: Test A pre-/postemergence plant response
How it was run: as §1

[7] = system: wheat (Triticum aestivum); assay: Test A pre-/postemergence plant response
How it was run: as §1

[8] = system: cocklebur (Xanthium strumarium); assay: Test B pre-/postemergence plant response; settings: for Cocklebur plant response rating (0 to 100 scale): 62 g ai/ha, 0 is no effect, 13 to 15 days
How it was run: (§2)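 Test compounds, formulated in a non-phytotoxic solvent mixture with surfactant, are applied to the soil surface (loam and sand blend) right after seeding, or sprayed over plants at the 1- to 4-leaf stage grown in peat moss/vermiculite medium. After 13 to 15 days under glasshouse conditions, each species is scored visually from 0 (no effect) to 100 (complete control) against controls.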

[9] = system: giant foxtail (Setaria faberii); assay: Test B pre-/postemergence plant response; settings: for Foxtail, Giant plant response rating (0 to 100 scale): 62 g ai/ha, 0 is no effect, 13 to 15 days
How it was run: as §2

[10] = system: green foxtail (Setaria viridis); assay: Test B pre-/postemergence plant response; settings: for Foxtail, Green plant response rating (0 to 100 scale): 62 g ai/ha, 0 is no effect, 13 to 15 days
How it was run: as §2

[11] = Postemergence, 125 g ai/ha, 0 to 100 scale where 0 is no effect and 100 is complete control
[12] = Postemergence, 500 g ai/ha, 0 to 100 scale, 0 = no effect, 100 = complete control, approx. ten days
[13] = Preemergence, 125 g ai/ha, 0 to 100 scale, 0 = no effect, 100 = complete control
[14] = Preemergence, 500 g ai/ha, visual injury, 0 to 100 scale (0 no effect, 100 complete control), approx. ten days
[15] = 31 g ai/ha, postemergence, scale 0 to 100, 0 is no effect, 100 is complete control
[16] = postemergence, 100 is complete control
[17] = Postemergence, 250 g ai/ha, scale 0 to 100 (0 no effect, 100 complete control)
[18] = Postemergence, 125 g ai/ha, scale 0 to 100 (0 no effect, 100 complete control)

CCCn1c(-c2ccsc2)ncc(C(=O)C2=C(O)CCCC2=O)c1=O [Compound 93]
Plant response rating, Barnyardgrass [1, 11]: 90
Plant response rating, Barnyardgrass [1, 12]: 90
Plant response rating, Barnyardgrass [1, 13]: 80
Plant response rating, Barnyardgrass [1, 14]: 100
Plant response rating, Corn (corn (Zea mays); [11]): 10
Plant response rating, Corn (corn (Zea mays); [12]): 30
Plant response rating, Corn (corn (Zea mays); [13]): 0
Plant response rating, Corn (corn (Zea mays); [14]): 0
Plant response rating, Foxtail, Giant [2, 11]: 80
Plant response rating, Foxtail, Giant [2, 12]: 90
Plant response rating, Foxtail, Giant [2, 13]: 60
Plant response rating, Foxtail, Giant [2, 14]: 80
Plant response rating, Crabgrass, Large [3, 11]: 90
Plant response rating, Crabgrass, Large [3, 12]: 100
Plant response rating, Crabgrass, Large [3, 13]: 90
Plant response rating, Crabgrass, Large [3, 14]: 100
Plant response rating, Morningglory [4, 11]: 100
Plant response rating, Morningglory [4, 12]: 100
Plant response rating, Morningglory [4, 13]: 80
Plant response rating, Morningglory [4, 14]: 90
Plant response rating, Pigweed [5, 11]: 100
Plant response rating, Pigweed [5, 12]: 100
Plant response rating, Pigweed [5, 13]: 100
Plant response rating, Pigweed [5, 14]: 100
Plant response rating, Velvetleaf [6, 11]: 100
Plant response rating, Velvetleaf [6, 12]: 100
Plant response rating, Velvetleaf [6, 13]: 90
Plant response rating, Velvetleaf [6, 14]: 100
Plant response rating, Wheat [7, 11]: 0
Plant response rating, Wheat [7, 12]: 0
Plant response rating, Wheat [7, 13]: 0
Plant response rating, Wheat [7, 14]: 0
Plant response rating, Cocklebur [8, 15]: 70
Cocklebur plant response rating (0 to 100 scale) [8, 16]: 90
Plant response rating, Cocklebur ([8]; Postemergence, 125 g ai/ha, visual rating after 13 to 15 days, scale 0 (no effect) to 100 (complete control)): 95
Plant response rating, Cocklebur [8, 17]: 98
Plant response rating, Foxtail, Giant [9, 15]: 70
Foxtail, Giant plant response rating (0 to 100 scale) [9, 16]: 80
Plant response rating, Foxtail, Giant [9, 17]: 85
Plant response rating, Foxtail, Green [10, 15]: 50
Foxtail, Green plant response rating (0 to 100 scale) [10, 16]: 60
Plant response rating, Foxtail, Green [10, 17]: 90

O=C1CCCC(O)=C1C(=O)c1cnc(-c2ccsc2)n(CC2CCCO2)c1=O (centres unmarked) [Compound 98]
Plant response rating, Barnyardgrass [1, 11]: 80
Plant response rating, Barnyardgrass [1, 12]: 90
Plant response rating, Barnyardgrass [1, 13]: 0
Plant response rating, Barnyardgrass [1, 14]: 60
Plant response rating, Corn (corn (Zea mays); [11]): 0
Plant response rating, Corn (corn (Zea mays); [12]): 60
Plant response rating, Corn (corn (Zea mays); [13]): 0
Plant response rating, Corn (corn (Zea mays); [14]): 0
Plant response rating, Foxtail, Giant [2, 11]: 70
Plant response rating, Foxtail, Giant [2, 12]: 90
Plant response rating, Foxtail, Giant [2, 13]: 40
Plant response rating, Foxtail, Giant [2, 14]: 80
Plant response rating, Crabgrass, Large [3, 11]: 90
Plant response rating, Crabgrass, Large [3, 12]: 100
Plant response rating, Crabgrass, Large [3, 13]: 90
Plant response rating, Crabgrass, Large [3, 14]: 100
Plant response rating, Morningglory [4, 11]: 100
Plant response rating, Morningglory [4, 12]: 100
Plant response rating, Morningglory [4, 13]: 70
Plant response rating, Morningglory [4, 14]: 80
Plant response rating, Pigweed [5, 11]: 100
Plant response rating, Pigweed [5, 12]: 100
Plant response rating, Pigweed [5, 13]: 100
Plant response rating, Pigweed [5, 14]: 100
Plant response rating, Velvetleaf [6, 11]: 100
Plant response rating, Velvetleaf [6, 12]: 100
Plant response rating, Velvetleaf [6, 13]: 90
Plant response rating, Velvetleaf [6, 14]: 100
Plant response rating, Wheat [7, 11]: 0
Plant response rating, Wheat [7, 12]: 20
Plant response rating, Wheat [7, 13]: 0
Plant response rating, Wheat [7, 14]: 0
Plant response rating, Cocklebur [8, 15]: 98
Cocklebur plant response rating (0 to 100 scale) [8, 16]: 100
Plant response rating, Cocklebur [8, 18]: 100
Plant response rating, Cocklebur [8, 17]: 100
Plant response rating, Foxtail, Giant [9, 15]: 65
Foxtail, Giant plant response rating (0 to 100 scale) [9, 16]: 75
Plant response rating, Foxtail, Giant [9, 18]: 85
Plant response rating, Foxtail, Giant [9, 17]: 85
Plant response rating, Foxtail, Green [10, 15]: 30
Foxtail, Green plant response rating (0 to 100 scale) [10, 16]: 85
Plant response rating, Foxtail, Green [10, 18]: 85
Plant response rating, Foxtail, Green [10, 17]: 95
